Data from ChEMBL document CHEMBL1165984, “Antiviral and anti-inflammatory diterpenoids from the soft coral Sinularia gyrosa” (J Nat Prod, 2010).
Active and inactive are the calls of the source. The calls are words filed in the database; no cut-off is given here.

Legend:
Salmonella enteritidis = assay: Antimicrobial activity against Salmonella enteritidis ATCC 13076 at 100 ug/disk; format: functional, organism-based; settings: Salmonella enterica subsp. enterica serovar Enteritidis
Shigella sonnei = assay: Antimicrobial activity against Shigella sonnei ATCC 11060 at 100 ug/disk; format: functional, organism-based
Human betaherpesvirus 5 = assay: Antiviral activity against HCMV infected in HEL cells assessed as reduction of virus plaque formation; format: functional, organism-based; settings: Human betaherpesvirus 5, HEL
Yersinia enterocolitica = assay: Antimicrobial activity against Yersinia enterocolitica ATCC 23715 at 100 ug/disk; format: functional, organism-based
Klebsiella aerogenes = assay: Antimicrobial activity against Enterobacter aerogenes ATCC 13048 at 100 ug/disk; format: functional, organism-based
A549 = assay: Cytotoxicity against human A549 cells by MTT assay; format: functional, cell-based
RAW264.7 = assay: Antiinflammatory activity in mouse RAW264.7 cells assessed as iNOS protein expression level at 10 uM; format: functional
P388 = assay: Cytotoxicity against mouse P388 cells by MTT assay; format: functional, cell-based
Serratia marcescens = assay: Antimicrobial activity against Serratia marcescens ATCC 25419 at 100 ug/disk; format: functional, organism-based

| Compound | inhibition (Salmonella enteritidis) | inhibition (Shigella sonnei) | IC50 (Human betaherpesvirus 5) | inhibition (Yersinia enterocolitica) | inhibition (Klebsiella aerogenes) | inhibition (A549) | Activity (RAW264.7) | inhibition (P388) | inhibition (Serratia marcescens) |
| --- | --- | --- | --- | --- | --- | --- | --- | --- | --- |
| C=C(CCC=C(C)C)[C@H]1CC[C@@]2(C)[C@H](C1)C(C)=CC[C@@H]2O [GYROSANOL A] | inactive | inactive | 2600 nM | inactive | inactive | inactive | 118.5% | inactive | inactive |
| C=C(CCC=C(C)C)[C@@H]1CC/C(C)=C/CCC(=C)[C@@H](O)C1 | inactive | inactive |  | inactive | inactive | inactive |  | inactive | inactive |
